# Measurements as given in the OPERA property sets (Mansouri et al. 2018).
# Settings: 20 °C
row,solubility,Structure (SMILES)
1,67700 µM,CCCCCCOCCO
2,36500 µM,Cc1ccco1
3,13700 µM,CCCCOCCOCCOCCCC
4,11500 µM,CCCCOCCOCCCC

# Same assay, conditions: 25 °C
row,solubility,Structure (SMILES)
1,0.0151 µM,Clc1cc(Cl)c(Cl)c(-c2c(Cl)ccc(Cl)c2Cl)c1
2,119000 µM,CCCCCCN
3,25.1 µM,CCCCCCCOC(=O)c1ccc(N)cc1
4,9990 µM,Fc1cccc(F)c1
5,0.0224 µM,Clc1ccc(-c2c(Cl)ccc(Cl)c2Cl)cc1Cl
6,790 µM,CCc1ccc(C)cc1
7,28100 µM,CCCCCC(C)O (stereo not given)
8,15500 µM,O=Cc1ccc([N+](=O)[O-])cc1
9,708000 µM,CCOCCOCC
10,3.98 µM,CCCCCCCCOC(=O)c1ccc(N)cc1
11,0.024 µM,Clc1ccc(-c2ccc(Cl)c(Cl)c2Cl)c(Cl)c1
12,0.148 µM,Clc1ccccc1-c1ccc(Cl)c(Cl)c1Cl
13,12300 µM,CC(=O)Nc1ccccc1[N+](=O)[O-]

row,Structure (SMILES),solubility
1,CCCC[N+](=O)[O-],44600 µM
2,Clc1cccc(-c2c(Cl)ccc(Cl)c2Cl)c1Cl,0.166 µM
3,Clc1ccc(Cl)c(-c2ccccc2)c1Cl,0.323 µM
4,Clc1cc(Cl)c(-c2c(Cl)ccc(Cl)c2Cl)cc1Cl,0.0117 µM
5,Clc1ccccc1-c1c(Cl)cccc1Cl,1.26 µM
6,Clc1cccc(-c2ccccc2)c1Cl,4.47 µM
7,CCCOC(N)=O,741000 µM
8,Clc1ccc(-c2c(Cl)cccc2Cl)cc1,0.617 µM
